Experimental data from a melting point compilation (Tetko et al.; mined from patent text by program, amines drawn as free bases though some values may be those of a salt).

Compared with `CCOC(=O)c1sc(NC(=O)c2cc(-c3cccs3)ccc2O)nc1-c1ccccc1`, `CCOC(=O)c1cccc(C=C(C(=O)O)c2ccccc2)c1` is lower in melting point: 213 to 214 °C for the first, 139 to 140 °C for the second.

First: COC(=O)c1ccc(Cn2nc(O)c3ccc(NC(=O)CC4CCCC4)cc32)c(OC)c1
Second: CCOc1ccc2c(c1)n(C1CCOCC1)c(=O)n2Cc1ccc(NC(=O)N(CC)CC)cc1OC
The melting point of the first is higher: 242 to 245 °C for the first, 168 °C for the second.

First: Cc1cc(C=O)ccc1NC(=O)OC(C)(C)C
Second: Cc1cc(C2(C(F)(F)F)CC(n3cncn3)=NO2)ccc1NC(=O)OC(C)(C)C (stereo not drawn)
The melting point of the first is higher: 109 to 111 °C for the first, 46 to 48 °C for the second.

First: COc1ccc(S(=O)(=O)N2CCn3c(c(C(N)=O)c(Cl)c3-c3ccccc3)C2)cc1
Second: Cc1noc(NS(=O)(=O)c2ccccc2-c2ccccc2)c1Cl
The melting point of the first is higher: 194 to 195 °C for the first, 132 to 134 °C for the second.

First: COC(=O)c1ccncc1OC
Second: CNc1ccc(C(=O)OC)c(OC)n1
The melting point of the first is higher: 132 to 135 °C for the first, 120 to 122 °C for the second.

First: NC(=Nc1ccc(CCNC(=O)c2cc(N)ccc2O)cc1)c1cccs1
Second: CC(C)(C)NC(=O)c1ccccc1-c1ccc(CBr)cc1
The melting point of the first is higher: over 260 °C for the first, 124 to 126 °C for the second.

Compared with `COc1ccc(-c2cc(C(O)C(F)(F)F)[nH]c2-c2ccc(OC)cc2)cc1` (stereo not drawn), `O=C(NCCOc1ccc(CC(Oc2ccccc2)C(=O)O)cc1)c1ccc(-c2ccc(C(F)(F)F)cc2)cc1` (stereo not drawn) is higher in melting point: 84 to 86 °C for the first, 217 to 218 °C for the second.

First: O=C(NC(=O)c1cc(Cl)cc(Cl)c1)NC1CN2CCC1CC2 (stereo not drawn)
Second: COC(=O)C(NC(C)=O)NC(=O)c1cc(Cl)cc(Cl)c1 (stereo not drawn)
The melting point of the first is higher: 253 to 254 °C for the first, 235 to 237 °C for the second.

First: Cc1ccnc(Sc2cnc(N)s2)n1
Second: Cc1ccc(CS(=O)(=O)c2nc3cscc3[nH]2)nc1
The melting point of the first is lower: 158 to 159 °C for the first, 163 °C for the second.

Compared with `CCCCCCCCSCCSc1nc(N)n[nH]1`, `NCCCCCCCCC(=O)O` is higher in melting point: 85 to 86 °C for the first, 190 to 193 °C for the second.

First: CCn1ncc2c1ncc1c(OCCN(C)C)nc3ncnn3c12
Second: CCn1nc2c(N)nc3ccccc3c2c1CC(C)C
The melting point of the first is lower: 149 to 150 °C for the first, 208 to 209 °C for the second.

First: Oc1c(Br)c(Br)c(Cl)c(Br)c1Br
Second: COc1c(Br)ccc2oc(C=O)c(C)c12
The melting point of the first is higher: 210 to 212 °C for the first, 81 to 82 °C for the second.

Compared with `Cc1ccc(NC(=O)C(=O)N2CCC(Cc3ccccc3)CC2)cc1`, `CCOC(=O)C=Cc1ccc(-c2ccccc2)cc1` is lower in melting point: 115 to 117 °C for the first, 88.6 °C for the second.

First: CCS(=O)(=O)c1ccc(-n2cncc2-c2ccc([N+](=O)[O-])cc2)cc1
Second: CCNC(=NS(=O)(=O)c1ccc(Cl)cc1)N1CC(c2ccccc2)C(c2ccc(Cl)cc2)=N1 (single isomer, unassigned; (-))
The melting point of the first is higher: 190 to 194 °C for the first, 172 to 175 °C for the second.

Compared with `C=CC[C@H](CC(=O)OC(C)(C)C)C(=O)N[C@H](C(=O)OCc1ccccc1)C(C)(C)C`, `COC(=O)[C@H](O)[C@@H](NC(=O)OC(C)(C)C)c1ccccc1` is higher in melting point: 55 to 57 °C for the first, 130 to 132 °C for the second.

First: COC(=O)NNC(=S)Cc1cc(OC)c(OC)c(OC)c1
Second: COc1cc(OC)c(NC(=O)[C@H](Cc2ccc(OCc3ccccc3)cc2)NC(=O)OC(C)(C)C)c(OC)c1
The melting point of the first is higher: 134 °C for the first, 89 to 95 °C for the second.

First: CC(C)=CCCC(C)=CCOc1ccc(C(=O)NCCSc2ccc(C(F)(F)F)cn2)cc1
Second: CCC/C(=C\C=C\C(=O)O)c1ccc(OC)cc1
The melting point of the first is lower: 96.7 to 97.5 °C for the first, 151 to 152 °C for the second.

First: CNc1cc(NC)nc(NC)n1
Second: C=CCNc1nc(NCCC)c2cc([N+](=O)[O-])ccc2n1
The melting point of the first is higher: 215 °C for the first, 211 to 212 °C for the second.

First: CC(=O)NCC(=O)Nn1cccc1C(=O)c1ccccc1F
Second: O=C(O)C(=O)CC(=O)c1cccn1Cc1cccc(Br)c1
The melting point of the first is lower: 146 to 147 °C for the first, 164 to 166 °C for the second.

First: CC(C)n1c(C=O)c(-c2ccc(F)cc2)c(-c2ccc(F)cc2)c1C(=O)Nc1ccc(CC(=O)N(C)C)cc1
Second: COc1ccc(-c2sc3c(c2CN(C)Cc2ccccc2)c(=O)c(C(C)=O)cn3Cc2ccccc2F)cc1
The melting point of the first is higher: 226 to 227 °C for the first, 185 to 193 °C for the second.

First: COc1ccc(C2CCOCC2)cc1N
Second: COc1ccc(C(=O)Cc2ccncc2Cl)cc1OC1CCCC1
The melting point of the first is lower: 102 to 103 °C for the first, 124 to 125 °C for the second.

First: CCOCCn1nc(-c2cc(C(C)(C)C)c(O)c(C(C)(C)C)c2)c2cccnc21
Second: Cn1c2c(cnc3c(N)cccc32)c(=O)n1C(=O)OC(C)(C)C
The melting point of the first is lower: 86 to 88 °C for the first, over 250 °C for the second.

First: Fc1cccc(NCc2nnc(-c3ccc4c(c3)CCO4)o2)c1
Second: Cc1oc(-c2ccccc2)nc1COc1ccc2c(c1)CCC(CO)=C2
The melting point of the first is higher: 166 to 167 °C for the first, 141 to 142 °C for the second.

Compared with `CCc1cccc2c(/C=C/C(=O)N3CCCCC3)cc(OC)c(OCOC)c12`, `CCOC(=O)c1c(C)cc2c(c1C)c(=O)n(-c1ccccc1C(F)(F)F)c(=O)n2CCN1CCN(C(=O)C=Cc2ccccc2)CC1` is higher in melting point: 85 to 86 °C for the first, 119 to 120 °C for the second.

Compared with `COc1ccc(C=C2SC(=S)N(CC(=O)O)C2=O)cc1`, `O=Cc1ccc(OCc2cn3c(Cl)cccc3n2)cc1` is lower in melting point: 250 to 253 °C for the first, 126 to 130 °C for the second.

First: CCCCN1CCC(n2c(=O)[nH]c3ccccc32)CC1
Second: N#CC1C(=O)NC(=O)C(C#N)C12CCN(Cc1ccccc1)CC2 (stereo not drawn)
The melting point of the first is higher: 207 to 209 °C for the first, 179 to 181 °C for the second.

First: CCn1cc(C(=O)O)c(=O)c2cc(Br)c(N3CCOCC3)cc21
Second: Cc1ccc(C(=O)Nc2ccc(N3CCOCC3)c(C(F)(F)F)c2)cc1Nc1nccc(-c2cccnc2)n1
The melting point of the first is higher: 266 °C for the first, 216 to 218 °C for the second.

Compared with `CNC(=O)Cc1ccccc1[N+](=O)[O-]`, `O=[N+]([O-])c1cnccc1Nn1ccc2ccccc21` is higher in melting point: 147 °C for the first, 170 to 172 °C for the second.

First: O=C(O)c1cc(NC(=O)C(F)(F)F)c(C(=O)c2ccccc2)c(OCc2ccccc2)c1
Second: CN(C)CCNC(=O)c1cccc(-c2ccnc(C(=O)N(O)Cc3ccccc3)c2)c1
The melting point of the first is higher: 213 °C for the first, 65 to 70 °C for the second.

First: O=C1NC(=O)C(c2ccccc2)(c2ccc(Br)cc2)N1 (stereo not drawn)
Second: Nc1n[nH]cc1-c1ccc(Cc2ccccc2)cc1
The melting point of the first is higher: 237 to 239 °C for the first, 127 to 130 °C for the second.

First: O=S(=O)(c1c[nH]cc1-c1ccc(Cl)cc1)C(F)(F)F
Second: CCC(CC)(C(N)=O)c1ccc(Cl)cc1
The melting point of the first is higher: 138 to 141 °C for the first, 107 to 109 °C for the second.

Compared with `CC(C)c1nccn1Cc1ccc2c(c1)-c1[nH]nc(-c3ccsc3)c1C2`, `COCN(COC)c1ccn2nc(-c3ccccc3)c(-c3ccc(=O)n(C(C)C)n3)c2c1` is higher in melting point: 128 to 129 °C for the first, 148 to 150 °C for the second.

Compared with `CC(C)Cn1c(=O)n(C)c(=O)c2c(-c3ccccc3F)n(Cc3csc4ccccc34)nc21`, `Cc1nnc(-c2ccccc2F)n2nc(OCc3ncnn3C)c(-c3ccccc3)c12` is higher in melting point: 55 to 57 °C for the first, 159 to 162 °C for the second.

First: CCOC(=O)COc1ccc(Br)cc1C(C)=O
Second: CC(=O)Nc1cc([N+](=O)[O-])ccc1OCCCN
The melting point of the first is lower: 66 to 68 °C for the first, 110 to 120 °C for the second.

First: CC(O)CNc1nc(C2C(=O)Nc3ccc(Br)cc32)c2cn(C)nc2n1 (stereo not drawn)
Second: O=C(Nc1nc(=O)c2cnn3c2n1CC=C3c1cccc(C(F)(F)F)c1)OCC(Cl)(Cl)Cl
The melting point of the first is higher: 298 to 301 °C for the first, 225 to 226 °C for the second.

First: CSc1nccn1CC(=O)NC1C(=O)N2C(C(=O)O)=C(CSc3nnc(C)s3)CSC12 (stereo not drawn)
Second: CCC(=O)NCC1CC1c1cccc2nc(C)nn12 (stereo not drawn)
The melting point of the first is higher: 220 °C for the first, 118 to 119 °C for the second.

First: Cc1nc(N=CN(C)C)sc1C
Second: COC1=CC(=O)c2c(C)cccc2C1=O
The melting point of the first is lower: 47 to 58 °C for the first, 138 to 140 °C for the second.

First: O=C1c2cc(Cl)ccc2OC(CCCCl)N1O (stereo not drawn)
Second: O=C1CNC(c2cccc(Cl)c2)=NN1
The melting point of the first is lower: 70 to 75 °C for the first, 228 to 230 °C for the second.

`COC(=O)[C@@H]1C/C=C/COc2ccc(cc2)C[C@H](NC(=O)OC(C)(C)C)C(=O)N[C@@H](C(C)C)C(=O)N1` and `CC(C)(C)NC(=O)OC1CCOC1=O` (stereo not drawn) cannot be ordered by melting point: 105 to 107 °C for the first, 104 to 106 °C for the second.

First: CCn1c(=O)oc2cc(N)ccc21
Second: Cc1cc(S(F)(F)(F)(F)F)ccc1N
The melting point of the first is higher: 72 to 74 °C for the first, 65 to 66 °C for the second.

First: CCCOc1ccccc1-c1nc(CO)c[nH]1
Second: CCCCN1C(=O)c2cnc(-c3ccccc3)nc2Nc2ccccc21
The melting point of the first is lower: 90 to 92 °C for the first, 140 to 141 °C for the second.

First: CCCC1=C([N+](=O)[O-])C(c2cccc3c2OCCC3)c2c[nH]nc2N1 (stereo not drawn)
Second: CCOC(=O)C1(c2ccccc2)CCN(CC(=O)O)CC1
The melting point of the first is higher: 234 °C for the first, 148 to 150 °C for the second.

First: Cc1c(-c2ccc(Cl)cc2)n(Cc2ccc(OCCN3CCCCC3)cc2)c2ccc(O)cc12
Second: Cc1c(-c2ccc(F)cc2)n(Cc2ccc(OCCBr)cc2)c2ccc(OCc3ccccc3)cc12
The melting point of the first is higher: 161 to 164 °C for the first, 114 to 116 °C for the second.

Compared with `CCOC(=O)/C(F)=C/c1ccc(N2C[C@H](CNC(C)=O)OC2=O)cc1`, `CCOC(=O)c1c2ccc(Cl)cc2c(-c2ccccc2)n1CCCC(C)=O` is lower in melting point: 161 to 163 °C for the first, 94 to 95 °C for the second.

First: C=C(C)C(=O)Oc1ccc(NS(C)(=O)=O)cc1
Second: CS(=O)(=O)Nc1ccc(C=O)cc1Sc1ccc(F)cc1F
The melting point of the first is higher: 129 to 131 °C for the first, 109 to 111 °C for the second.

First: CC(=NN(C1=NNC(=O)CC1)c1ccccc1)c1ccccc1
Second: O=C(O)c1cccc2sc3ccccc3c(=O)c12
The melting point of the first is lower: 176 to 178 °C for the first, 269 to 270 °C for the second.

First: CC(Cl)(Cl)C(NC(=O)c1cccs1)NC(=NC#N)Nc1ccc(Cl)nc1 (stereo not drawn)
Second: COC(C(N)=O)(C(N)=O)c1ccc(Cl)c(Cl)c1
The melting point of the first is lower: 201 to 203 °C for the first, 211 to 213 °C for the second.

First: O=C(O)c1ccc2cc(-c3ccc(CCCO)c(C45CC6CC(CC(C6)C4)C5)c3)ccc2c1
Second: Cc1cc(-n2ccnc2)c2cccc(OCc3c(Cl)ccc(S(=O)(=O)N4C[C@H](O)C[C@H]4C(=O)O)c3Cl)c2n1
The melting point of the first is higher: 262 °C for the first, 140 °C for the second.

Compared with `CSc1sc(-c2cn[nH]c2)c2c1C(=O)CC(C)(C)C2`, `CCOC(=O)c1cn2c3c(c(-c4cc(C)nc(C)c4)c(F)cc3c1=O)OC[C@@H]2C` is higher in melting point: 213 to 215 °C for the first, 267 to 273 °C for the second.

First: COC(C)(CC(=O)NC1CCCCC1)OC
Second: O=C(NC1CCCCC1)NS(=O)(=O)c1ccc(CCNC(=O)N2CCC3=C(CCCC3)C2=O)cc1
The melting point of the first is lower: 66 °C for the first, 176 to 177 °C for the second.

`N#Cc1nc(C#N)c(C#N)nc1C#N` and `COc1ccc2c(n1)C1(CO2)C(=O)N(CC(=O)Nc2ccccc2F)c2ccccc21` (stereo not drawn) cannot be ordered by melting point: 274 to 276 °C for the first, over 170 °C for the second.

Molecule `CC/C(=C\CCC(O)(CC)CC)c1cc(CCc2ccc(CO)c(CO)c2)cs1` has a melting point of 85 to 86 °C.
